Laboratory results published in ChEMBL document CHEMBL3217540, “New 3-amidinophenylalanine-derived inhibitors of matriptase” (Medchemcomm, 2012).

What was measured:
[1] = target: T1, Transmembrane protease serine 6 (Homo sapiens, UniProt Q8IU80); assay: Inhibition of matriptase-2 (unknown origin) expressed in HEK293 cells using ln-Ala-Arg-a-Arg-para-nitroanilide as substrate by UV-vis spectrophotometry; type: cell-based
T1 sequence (Q8IU80 whole entry): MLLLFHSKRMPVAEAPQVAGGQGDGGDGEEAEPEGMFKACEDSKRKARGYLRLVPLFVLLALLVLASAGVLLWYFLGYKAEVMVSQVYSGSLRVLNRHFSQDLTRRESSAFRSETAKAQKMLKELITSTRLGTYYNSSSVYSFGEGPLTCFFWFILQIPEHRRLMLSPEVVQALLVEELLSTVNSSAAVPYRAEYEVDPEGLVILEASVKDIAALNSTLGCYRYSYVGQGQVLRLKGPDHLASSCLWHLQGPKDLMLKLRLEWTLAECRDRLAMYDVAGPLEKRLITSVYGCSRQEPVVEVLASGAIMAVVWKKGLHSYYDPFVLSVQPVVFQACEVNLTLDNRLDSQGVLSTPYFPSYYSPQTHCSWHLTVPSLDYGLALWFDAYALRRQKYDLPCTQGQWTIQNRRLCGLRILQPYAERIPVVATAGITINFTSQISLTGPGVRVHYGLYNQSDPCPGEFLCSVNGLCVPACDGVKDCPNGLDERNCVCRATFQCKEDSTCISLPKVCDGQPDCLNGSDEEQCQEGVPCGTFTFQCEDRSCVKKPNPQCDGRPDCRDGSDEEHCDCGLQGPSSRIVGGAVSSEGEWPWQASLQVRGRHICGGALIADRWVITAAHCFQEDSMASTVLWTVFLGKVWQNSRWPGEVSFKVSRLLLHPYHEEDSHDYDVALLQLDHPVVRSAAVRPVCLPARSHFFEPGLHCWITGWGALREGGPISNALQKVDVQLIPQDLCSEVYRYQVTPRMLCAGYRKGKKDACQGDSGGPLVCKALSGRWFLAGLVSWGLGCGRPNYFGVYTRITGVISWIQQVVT

[2] = target: T2, Suppressor of tumorigenicity 14 protein (Homo sapiens, UniProt Q9Y5Y6); assay: Inhibition of matriptase (unknown origin) using MeSO2-D-Cha-Gly-Arg-pNA as substrate
T2 sequence (Q9Y5Y6 whole entry): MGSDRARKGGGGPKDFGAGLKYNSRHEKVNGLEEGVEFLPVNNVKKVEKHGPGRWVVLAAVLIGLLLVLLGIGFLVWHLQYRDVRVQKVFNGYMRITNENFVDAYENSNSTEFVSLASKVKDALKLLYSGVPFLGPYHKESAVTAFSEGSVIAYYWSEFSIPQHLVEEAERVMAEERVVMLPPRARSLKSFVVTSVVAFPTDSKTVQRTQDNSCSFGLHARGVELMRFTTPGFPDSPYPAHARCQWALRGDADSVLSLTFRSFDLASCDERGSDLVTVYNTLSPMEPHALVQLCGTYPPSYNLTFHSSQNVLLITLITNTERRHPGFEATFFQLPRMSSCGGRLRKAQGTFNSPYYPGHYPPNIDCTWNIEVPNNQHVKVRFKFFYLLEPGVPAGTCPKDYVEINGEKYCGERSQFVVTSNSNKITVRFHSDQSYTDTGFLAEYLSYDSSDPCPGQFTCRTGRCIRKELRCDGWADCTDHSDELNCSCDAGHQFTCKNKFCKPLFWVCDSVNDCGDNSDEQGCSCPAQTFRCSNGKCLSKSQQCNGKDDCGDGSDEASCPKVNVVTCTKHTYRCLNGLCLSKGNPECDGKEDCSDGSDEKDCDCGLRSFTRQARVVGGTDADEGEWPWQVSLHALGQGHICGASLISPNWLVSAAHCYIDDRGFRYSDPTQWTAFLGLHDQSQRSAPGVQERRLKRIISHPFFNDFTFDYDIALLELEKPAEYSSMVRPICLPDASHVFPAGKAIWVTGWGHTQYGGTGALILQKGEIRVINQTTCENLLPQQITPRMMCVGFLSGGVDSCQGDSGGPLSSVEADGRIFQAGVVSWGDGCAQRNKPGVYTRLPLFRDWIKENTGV

Coagulation factor X = Coagulation factor X (Homo sapiens, UniProt P00742); assay: Inhibition of human factor 10a using CH3OCO-D-Cha-Gly-Arg-pNA as substrate
Prothrombin = Prothrombin (Bos taurus, UniProt P00735); assay: Inhibition of bovine thrombin using MeSO2-D-Cha-Gly-Arg-pNA as substrate
[3] = Inhibition of recombinant human airway trypsin-like protease by fluorescence assay
[4] = target: Urokinase-type plasminogen activator (Homo sapiens, UniProt P00749); assay: Inhibition of human uPA using Bzbeta-Ala-Gly-Arg-pNA as substrate
[5] = Selectivity ratio of Ki for bovine thrombin to Ki for matriptase (unknown origin)

Coagulation factor X, sequence (P00742 41-179 limits assumed): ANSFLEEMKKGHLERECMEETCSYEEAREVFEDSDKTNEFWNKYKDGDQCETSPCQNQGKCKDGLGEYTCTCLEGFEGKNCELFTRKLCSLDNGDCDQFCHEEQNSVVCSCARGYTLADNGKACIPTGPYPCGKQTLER
Coagulation factor X, sequence (P00742 235-488 limits assumed): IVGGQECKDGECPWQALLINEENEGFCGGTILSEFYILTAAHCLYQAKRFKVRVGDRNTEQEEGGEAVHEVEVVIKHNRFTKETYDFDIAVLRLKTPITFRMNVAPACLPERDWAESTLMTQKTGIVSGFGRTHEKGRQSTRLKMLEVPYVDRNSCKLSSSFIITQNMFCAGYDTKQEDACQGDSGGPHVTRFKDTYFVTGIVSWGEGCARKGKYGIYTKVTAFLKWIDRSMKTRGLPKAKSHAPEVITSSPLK

Ki [1]	Ki [2]	Ki (Coagulation factor X)	Ki (Prothrombin)	Ki [3]	Ki [4]	Ratio Ki [5]	SMILES
0.35 µM	0.013 µM	0.032 µM	0.001 µM				CNC(=O)CCCC1CCN(C(=O)[C@H](Cc2cccc(C(=N)N)c2)NS(=O)(=O)c2cccc(-c3ccc(Cl)cc3Cl)c2)CC1
1.3 µM	0.014 µM	3.41 µM	9.25 µM				N=C(N)c1cccc(C[C@H](NS(=O)(=O)c2cccc(NC(=O)CCN)c2)C(=O)N2CCC(NC(=O)Nc3ccccc3)CC2)c1
0.58 µM	0.018 µM		0.03 µM				N=C(N)c1cccc(C[C@H](NS(=O)(=O)c2cccc(-c3ccc(Cl)c(Cl)c3)c2)C(=O)N2CCC(CCN)CC2)c1
0.4 µM	0.013 µM	0.17 µM	0.4 µM				CCOc1ccc(-c2cccc(S(=O)(=O)N[C@@H](Cc3cccc(C(=N)N)c3)C(=O)N3CCC(CCN)CC3)c2)c(Cl)c1
0.75 µM	0.051 µM	0.26 µM	0.004 µM				CNC(=O)CCCC1CCN(C(=O)[C@H](Cc2cccc(C(=N)N)c2)NS(=O)(=O)c2cccc(-c3cccc(Cl)c3Cl)c2)CC1
2.1 µM	0.023 µM	0.81 µM	0.04 µM				N=C(N)c1cccc(C[C@H](NS(=O)(=O)c2cccc(-c3ccccc3F)c2)C(=O)N2CCC(CCN)CC2)c1
3 µM	0.12 µM	1.1 µM	0.002 µM				CNC(=O)CCCC1CCN(C(=O)[C@H](Cc2cccc(C(=N)N)c2)NS(=O)(=O)c2cccc(-c3ccccc3F)c2)CC1
0.79 µM	0.008 µM	1.2 µM	35.9 µM				N=C(N)c1cccc(C[C@H](NS(=O)(=O)c2cccc(NC(=O)CCN)c2)C(=O)N2CCC(NC(=O)NC3CCCCC3)CC2)c1
3.2 µM	0.052 µM	3.2 µM	0.04 µM				N=C(N)c1cccc(C[C@H](NS(=O)(=O)c2cccc(-c3cccc(F)c3)c2)C(=O)N2CCC(CCN)CC2)c1
3.9 µM	0.035 µM	16.9 µM	9.7 µM				N=C(N)c1cccc(C[C@H](NS(=O)(=O)c2cccc(NC(=O)CCN)c2)C(=O)N2CCC(NC(N)=O)CC2)c1
10 µM	0.13 µM	3.05 µM	0.006 µM				CNC(=O)CCCC1CCN(C(=O)[C@H](Cc2cccc(C(=N)N)c2)NS(=O)(=O)c2cccc(-c3cccc(F)c3)c2)CC1
1.3 µM	0.017 µM	5.52 µM	0.23 µM				N=C(N)c1cccc(C[C@H](NS(=O)(=O)c2cccc(NC(=O)CCN)c2)C(=O)N2CCC(CCNC(=O)NCc3ccccc3)CC2)c1
4.4 µM	0.12 µM	0.55 µM	0.001 µM				CNC(=O)CCCC1CCN(C(=O)[C@H](Cc2cccc(C(=N)N)c2)NS(=O)(=O)c2cccc(-c3ccc(F)cc3)c2)CC1
2.4 µM	0.039 µM	8.89 µM	15.3 µM				CCNC(=O)NC1CCN(C(=O)[C@H](Cc2cccc(C(=N)N)c2)NS(=O)(=O)c2cccc(NC(=O)CCN)c2)CC1
0.073 µM	0.0009 µM	0.029 µM	0.0002 µM	0.17 µM	3.4 µM		CNC(=O)NCCC1CCN(C(=O)[C@H](Cc2cccc(C(=N)N)c2)NS(=O)(=O)c2cccc(-c3ccc(Cl)cc3Cl)c2)CC1
0.94 µM	0.0051 µM	0.02 µM	0.63 µM	2.7 µM	18.1 µM	> 500	N=C(N)c1cccc(C[C@H](NS(=O)(=O)c2cccc(-c3ccc(Cl)cc3Cl)c2)C(=O)N2CCC(NC(=O)NC3CCCCC3)CC2)c1
0.77 µM	0.008 µM	0.06 µM	0.001 µM				CNC(=O)CCCC1CCN(C(=O)[C@H](Cc2cccc(C(=N)N)c2)NS(=O)(=O)c2cccc(-c3ccc(OC)cc3OC)c2)CC1
0.21 µM	0.011 µM		0.02 µM				N=C(N)c1cccc(C[C@H](NS(=O)(=O)c2cccc(-c3cccc(Cl)c3Cl)c2)C(=O)N2CCC(CCN)CC2)c1
1.42 µM	0.0027 µM	0.011 µM	1.23 µM	0.83 µM	18.5 µM	> 500	COc1ccc(-c2cccc(S(=O)(=O)N[C@@H](Cc3cccc(C(=N)N)c3)C(=O)N3CCC(NC(=O)NC4CCCCC4)CC3)c2)c(OC)c1
1.6 µM	0.074 µM	0.23 µM	0.003 µM				CNC(=O)CCCC1CCN(C(=O)[C@H](Cc2cccc(C(=N)N)c2)NS(=O)(=O)c2cccc(-c3ccc(Cl)c(Cl)c3)c2)CC1
3.2 µM	0.033 µM	1.12 µM	0.005 µM				N=C(N)c1cccc(C[C@H](NS(=O)(=O)c2cccc(-c3ccc(F)cc3)c2)C(=O)N2CCC(CCN)CC2)c1
1.1 µM	0.026 µM	2.45 µM	7.84 µM				N=C(N)c1cccc(C[C@H](NS(=O)(=O)c2cccc(NC(=O)CCN)c2)C(=O)N2CCC(NC(=O)NCc3ccccc3)CC2)c1
1.8 µM	0.023 µM	6.45 µM	0.47 µM				N=C(N)c1cccc(C[C@H](NS(=O)(=O)c2cccc(NC(=O)CCN)c2)C(=O)N2CCC(CCNC(=O)NC3CCCCC3)CC2)c1
1.9 µM	0.011 µM	2.61 µM	0.44 µM				N=C(N)c1cccc(C[C@H](NS(=O)(=O)c2cccc(NC(=O)CCN)c2)C(=O)N2CCC(CCNC(=O)Nc3ccccc3)CC2)c1
3.3 µM	0.014 µM	13.9 µM	0.14 µM				N=C(N)c1cccc(C[C@H](NS(=O)(=O)c2cccc(NC(=O)CCN)c2)C(=O)N2CCC(CCNC(N)=O)CC2)c1
1.2 µM	0.007 µM	7.07 µM	0.04 µM				CNC(=O)NCCC1CCN(C(=O)[C@H](Cc2cccc(C(=N)N)c2)NS(=O)(=O)c2cccc(NC(=O)CCN)c2)CC1
1.3 µM	0.056 µM	14.1 µM	10.8 µM				CNC(=O)NC1CCN(C(=O)[C@H](Cc2cccc(C(=N)N)c2)NS(=O)(=O)c2cccc(NC(=O)CCN)c2)CC1
0.18 µM	0.0018 µM	0.051 µM	0.0008 µM	0.11 µM	4.4 µM		CNC(=O)NCCC1CCN(C(=O)[C@H](Cc2cccc(C(=N)N)c2)NS(=O)(=O)c2cccc(-c3ccc(OC)cc3OC)c2)CC1
1.3 µM	0.049 µM	0.18 µM	0.03 µM				CCOc1ccc(-c2cccc(S(=O)(=O)N[C@@H](Cc3cccc(C(=N)N)c3)C(=O)N3CCC(CCCC(=O)NC)CC3)c2)c(Cl)c1
0.46 µM	0.012 µM	4.79 µM	0.13 µM				CCNC(=O)NCCC1CCN(C(=O)[C@H](Cc2cccc(C(=N)N)c2)NS(=O)(=O)c2cccc(NC(=O)CCN)c2)CC1

SMILES	Ki [1]	Ki [2]	Ki (Coagulation factor X)	Ki (Prothrombin)	Ki [3]	Ki [4]	Ratio Ki [5]
N=C(N)c1cccc(C[C@H](NS(=O)(=O)c2cccc(-c3ccc(Cl)cc3Cl)c2)C(=O)N2CCC(CCN)CC2)c1	0.11 µM	0.002 µM	0.05 µM	0.02 µM			
